Test results reported in patent publication US20120225862A1, “HETEROARYL BENZAMIDES, COMPOSITIONS AND METHODS OF USE” (AUCKLAND UNIVSERVICES LIMITED, priority 2009, published 2012).

Key:
RCC4/VHL = assay: Lactate production (glycolysis), RCC4/VHL; assay type: cell-based, human; conditions: 5 μM
Protocol: (§1) All cells were grown in DMEM+10% FCS. ACHN and ACHN shVHL were a kind gift from George V. Thomas (UCLA). HIF overexpressing clones were described previously. Transfection of RNA oligos were performed with DnarmaFECT Reagent 1 (Dharmcon), according to manufacturer's directions. ON-TARGETplus SMART pools against HIF-1β/ARNT were purchased from Dharmacon. Glut1 was detected with anti-GLUT1 antibody from NeoMarkers/LabVision/Fisher. Pyruvate/lactate levels and hexokinase activity were both measured by fluorometric assay (BioVision and Sigma-Aldrich, respectively). ATP levels were measured by bioluminescence assay (ATP Determination Kit from Molecular Probes/Invitrogen). In vitro kinase activities were performed by Millipore KinaseProfiler. Affi-Gel 10 (BioRad) activated affinity media was coupled to analogs to generate immobilized affinity linkers.
As the central mediator of oxygen homeostasis, HIF plays an important role in the cellular adaptation to low oxygen conditions through the regulation of genes involved in metabolism and energy production. Inactivation of VHL results in an increase in the half-life of HIF protein. […] To examine whether this compound alters the rate of glycolysis in VHL-deficient cells, we measured the intracellular production of lactate, which is rapidly converted from pyruvate, the end-product of glycolysis. […]

786-O = assay: 3H-2-deoxyglucose uptake, 786-O; assay type: cell-based, human; conditions: 5 μM, FIG. 8B
Protocol: One hundred thousand cells were plated into 6-well plates. The following day, the cells were treated with vehicle or drug and incubated for the indicated time. Cells were washed twice in phosphate buffered saline and low glucose media was added for 30 minutes. Cells were then incubated with 0.5 microCi of tritiated-2-deoxyglucose and incubated for an hour at 37° C. Cells were washed twice in PBS and then lysed in 0.2 N NaOH and 0.2% SDS. Lysates were transferred to scintillation tubes with scintillation fluid and quantified by scintillation counter.
One hundred thousand cells were plated per well in a six-well plate. The next day, cells were treated with the indicated concentration of drug and incubated for the indicated time. Cells were then washed twice with phosphate-buffered saline, incubated in low-glucose medium for 30 minutes, and ^3H-2-deoxyglucose (0.5 μCi) was added in 1 ml of glucose-free media for an additional hour. Cells were washed twice in PBS and lysed (0.2 N NaOH and 0.2% sodium dodecyl sulfate). Glucose uptake was quantified with a scintillation counter.

RCC4 = assay: ATP levels (bioluminescence), VHL-deficient cells; assay type: cell-based, human
Protocol: as §1
We next investigated how a decrease in glycolysis could lead to selective necrotic cell death. One possibility is that the reduction in glycolysis lowers the availability of pyruvate, the essential precursor for the generation of acetyl-CoA. […] We therefore examined oxygen consumption as a marker of oxidative phosphorylation and ATP production in treated and untreated cells. […] However, the decrease in glucose uptake in response to treatment with compound 47 in VHL-deficient cells results in a 75% decrease in ATP levels (FIG. 3G). […]

ASK1 = molecular target: T1, ASK1 (Homo sapiens, UniProt Q99683); assay: In vitro kinase activity (Millipore KinaseProfiler): ASK1; assay type: biochemical; conditions: no head or unit printed
T1 construct: purchased Millipore (KinaseProfiler service)
T1 sequence (Q99683 whole entry, species assumed): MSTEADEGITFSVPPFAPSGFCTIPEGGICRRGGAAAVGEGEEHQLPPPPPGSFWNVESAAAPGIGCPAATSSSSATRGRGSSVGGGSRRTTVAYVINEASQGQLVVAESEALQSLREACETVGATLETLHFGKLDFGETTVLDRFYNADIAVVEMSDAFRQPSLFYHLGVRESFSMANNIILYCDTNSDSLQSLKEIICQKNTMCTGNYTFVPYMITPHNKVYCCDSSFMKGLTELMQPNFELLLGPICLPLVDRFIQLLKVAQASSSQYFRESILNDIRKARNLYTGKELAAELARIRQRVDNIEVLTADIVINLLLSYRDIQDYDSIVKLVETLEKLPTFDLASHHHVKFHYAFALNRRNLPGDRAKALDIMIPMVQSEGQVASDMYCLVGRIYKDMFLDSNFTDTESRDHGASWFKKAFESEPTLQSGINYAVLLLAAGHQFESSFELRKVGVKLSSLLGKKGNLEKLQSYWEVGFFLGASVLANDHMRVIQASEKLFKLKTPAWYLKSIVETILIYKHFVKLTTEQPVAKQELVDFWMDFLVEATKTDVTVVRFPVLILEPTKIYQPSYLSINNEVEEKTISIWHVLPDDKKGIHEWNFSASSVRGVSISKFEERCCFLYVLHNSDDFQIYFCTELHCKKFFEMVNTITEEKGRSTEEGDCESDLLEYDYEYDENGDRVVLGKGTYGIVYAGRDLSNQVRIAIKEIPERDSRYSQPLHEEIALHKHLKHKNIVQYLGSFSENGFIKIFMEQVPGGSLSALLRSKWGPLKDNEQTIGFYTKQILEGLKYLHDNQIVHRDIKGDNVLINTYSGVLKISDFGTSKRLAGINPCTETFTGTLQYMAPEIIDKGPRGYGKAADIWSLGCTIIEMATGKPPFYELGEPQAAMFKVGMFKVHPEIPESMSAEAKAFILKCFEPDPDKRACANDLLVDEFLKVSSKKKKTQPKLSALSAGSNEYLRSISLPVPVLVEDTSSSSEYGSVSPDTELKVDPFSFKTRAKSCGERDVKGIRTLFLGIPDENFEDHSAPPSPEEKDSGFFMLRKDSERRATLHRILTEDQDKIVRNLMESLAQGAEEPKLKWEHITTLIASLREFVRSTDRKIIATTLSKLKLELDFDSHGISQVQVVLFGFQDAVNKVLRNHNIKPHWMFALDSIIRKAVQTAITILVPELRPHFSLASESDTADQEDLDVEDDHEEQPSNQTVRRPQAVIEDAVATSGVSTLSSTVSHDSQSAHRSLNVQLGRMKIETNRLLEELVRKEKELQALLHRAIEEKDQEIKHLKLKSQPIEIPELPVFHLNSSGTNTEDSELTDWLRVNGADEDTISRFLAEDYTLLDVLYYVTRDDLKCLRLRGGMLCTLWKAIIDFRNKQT
Protocol: as §1
(§2) We next wanted to investigate the differential glucose uptake between RCCs with and without VHL treated with compound 47 that subsequently lead to the selective death of VHL-deficient cells. We first examined the message levels of the two main glucose transporters, GLUT1 and GLUT2 by quantitative real-time PCR. GLUT1 is an inducible, high-affinity glucose transporter, while GLUT2 is the glucose transporter responsible for basal glucose uptake. […] Cells deficient in VHL had very low levels of GLUT2 that could barely be detected (FIG. 3J). […]

CDK6/cyclinD3 = molecular target: T2, CDK6/cyclinD3 (Homo sapiens, UniProt Q00534); assay: In vitro kinase activity (Millipore KinaseProfiler): CDK6/cyclinD3; assay type: biochemical; conditions: no head or unit printed
T2 construct: purchased Millipore (KinaseProfiler service)
T2 sequence (Q00534 whole entry, species assumed): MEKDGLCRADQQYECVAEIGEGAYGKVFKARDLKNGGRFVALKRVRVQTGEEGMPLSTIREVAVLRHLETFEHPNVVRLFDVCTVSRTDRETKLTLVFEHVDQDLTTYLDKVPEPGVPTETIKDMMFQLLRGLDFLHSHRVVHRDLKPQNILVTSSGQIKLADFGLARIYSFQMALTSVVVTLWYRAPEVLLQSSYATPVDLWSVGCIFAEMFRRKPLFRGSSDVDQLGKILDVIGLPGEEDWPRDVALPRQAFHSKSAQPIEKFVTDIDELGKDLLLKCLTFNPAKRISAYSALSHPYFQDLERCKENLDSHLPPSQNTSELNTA
T2 sequence (P30281 whole entry partner, species assumed): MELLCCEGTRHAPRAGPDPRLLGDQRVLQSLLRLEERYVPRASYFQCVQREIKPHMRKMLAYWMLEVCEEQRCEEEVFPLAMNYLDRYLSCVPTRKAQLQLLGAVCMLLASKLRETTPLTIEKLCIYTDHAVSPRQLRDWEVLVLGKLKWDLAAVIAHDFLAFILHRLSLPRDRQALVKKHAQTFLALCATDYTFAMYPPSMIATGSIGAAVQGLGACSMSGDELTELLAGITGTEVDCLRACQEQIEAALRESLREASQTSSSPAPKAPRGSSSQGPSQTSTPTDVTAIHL
Protocol: as §1, §2

c-RAF = molecular target: T3, c-RAF (Homo sapiens, UniProt P04049); assay: In vitro kinase activity (Millipore KinaseProfiler): c-RAF; assay type: biochemical; conditions: no head or unit printed
T3 construct: purchased Millipore (KinaseProfiler service)
T3 sequence (P04049 whole entry, species assumed): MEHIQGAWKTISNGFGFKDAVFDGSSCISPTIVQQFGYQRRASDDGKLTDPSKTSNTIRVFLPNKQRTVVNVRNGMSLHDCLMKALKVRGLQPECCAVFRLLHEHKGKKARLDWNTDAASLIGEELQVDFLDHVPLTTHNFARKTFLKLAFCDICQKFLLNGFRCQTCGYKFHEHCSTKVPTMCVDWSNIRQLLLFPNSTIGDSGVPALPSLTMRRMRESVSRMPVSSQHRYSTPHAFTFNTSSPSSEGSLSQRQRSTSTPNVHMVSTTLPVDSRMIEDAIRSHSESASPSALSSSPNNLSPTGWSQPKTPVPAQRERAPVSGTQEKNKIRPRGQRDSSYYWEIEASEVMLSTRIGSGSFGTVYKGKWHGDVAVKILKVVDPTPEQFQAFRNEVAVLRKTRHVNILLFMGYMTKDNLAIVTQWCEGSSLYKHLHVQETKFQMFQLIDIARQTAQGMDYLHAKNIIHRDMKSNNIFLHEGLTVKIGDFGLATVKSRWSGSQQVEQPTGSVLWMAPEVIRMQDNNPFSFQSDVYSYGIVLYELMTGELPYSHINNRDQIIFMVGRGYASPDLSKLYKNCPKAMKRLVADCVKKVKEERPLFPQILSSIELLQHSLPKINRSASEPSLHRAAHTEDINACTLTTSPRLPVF
Protocol: as §1, §2

MAPKAP-K2 = molecular target: T4, MAPKAP-K2 (Homo sapiens, UniProt P49137); assay: In vitro kinase activity (Millipore KinaseProfiler): MAPKAP-K2; assay type: biochemical; conditions: no head or unit printed
T4 construct: purchased Millipore (KinaseProfiler service)
T4 sequence (P49137 whole entry, species assumed): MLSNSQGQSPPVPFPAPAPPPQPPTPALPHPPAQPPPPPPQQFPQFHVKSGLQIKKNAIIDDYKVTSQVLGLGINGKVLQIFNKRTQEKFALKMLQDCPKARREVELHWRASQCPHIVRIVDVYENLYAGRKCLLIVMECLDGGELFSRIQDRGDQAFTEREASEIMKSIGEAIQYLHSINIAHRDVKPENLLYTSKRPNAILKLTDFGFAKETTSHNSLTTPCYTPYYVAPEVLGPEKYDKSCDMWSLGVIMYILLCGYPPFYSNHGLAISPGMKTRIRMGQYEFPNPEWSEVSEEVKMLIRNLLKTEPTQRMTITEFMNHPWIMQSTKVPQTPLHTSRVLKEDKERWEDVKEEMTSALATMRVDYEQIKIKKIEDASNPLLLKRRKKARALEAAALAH
Protocol: as §1, §2

TrkA = molecular target: T5, TrkA (Homo sapiens, UniProt P04629); assay: In vitro kinase activity (Millipore KinaseProfiler): TrkA; assay type: biochemical; conditions: no head or unit printed
T5 construct: purchased Millipore (KinaseProfiler service)
T5 sequence (P04629 33-796): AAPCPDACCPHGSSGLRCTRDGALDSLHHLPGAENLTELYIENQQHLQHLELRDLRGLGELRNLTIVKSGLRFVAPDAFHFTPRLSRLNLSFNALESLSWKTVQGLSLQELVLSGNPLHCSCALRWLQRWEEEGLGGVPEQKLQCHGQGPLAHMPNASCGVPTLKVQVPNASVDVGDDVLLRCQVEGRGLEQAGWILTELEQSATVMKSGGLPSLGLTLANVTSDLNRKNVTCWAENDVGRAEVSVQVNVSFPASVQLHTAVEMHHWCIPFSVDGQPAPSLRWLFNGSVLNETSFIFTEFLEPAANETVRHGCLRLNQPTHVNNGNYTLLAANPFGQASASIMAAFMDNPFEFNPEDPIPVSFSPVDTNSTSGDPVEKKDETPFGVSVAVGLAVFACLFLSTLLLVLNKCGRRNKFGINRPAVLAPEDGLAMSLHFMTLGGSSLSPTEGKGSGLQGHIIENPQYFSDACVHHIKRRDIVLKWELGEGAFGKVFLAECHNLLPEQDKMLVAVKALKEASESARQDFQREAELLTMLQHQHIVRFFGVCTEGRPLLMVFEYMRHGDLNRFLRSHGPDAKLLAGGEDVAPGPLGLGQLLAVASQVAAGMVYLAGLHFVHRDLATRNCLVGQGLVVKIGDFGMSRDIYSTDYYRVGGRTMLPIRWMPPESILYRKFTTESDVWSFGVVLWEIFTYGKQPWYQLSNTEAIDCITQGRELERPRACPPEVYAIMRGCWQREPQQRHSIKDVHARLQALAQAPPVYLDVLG
Protocol: as §1, §2

CC(C)(C)c1ccc(S(=O)(=O)NCc2ccc(C(=O)Nc3cccnc3)cc2)cc1 [Example 38, 4-((4-tert-Butylphenylsulfonamido)methyl)-N-(pyridin-3-yl)benzamide]
effect on glycolysis (lactate) in cells with wild-type VHL (RCC4/VHL): did not affect glycolysis | glucose uptake in 786-O cells (786-O): impaired glucose uptake | decrease in ATP levels in VHL-deficient cells (RCC4; 5 μM, FIG. 3G): 75% | concentration dependence of inhibition of ATP production (RCC4; FIG. 3H): dose-dependent | ASK1 kinase activity (ASK1): 129% | CDK6/cyclinD3 kinase activity (CDK6/cyclinD3): 105 | c-RAF kinase activity (c-RAF): 103 | MAPKAP-K2 kinase activity (MAPKAP-K2): 87 | TrkA kinase activity (TrkA): 124
